Laboratory results: ChEMBL document CHEMBL1123473, “4,5-Disubstituted primaquine analogues as potential antimalarial agents” (1986)

Tests used:
Rhesus monkey [1] = test: Number of days between the end of the treatment and relapse was reported at a dose 0.316 mg/kg; assay type: functional, Cercopithecidae
Plasmodium cynomolgi [2] = test: Antimalarial activity against Plasmodium cynomolgi in rhesus monkey at a dose 0.1 mg/kg; 0 of 1; assay type: functional
Rhesus monkey [3] = test: Number of days between the end of the treatment and relapse was reported at a dose 1.0 mg/kg; assay type: functional, Cercopithecidae
Plasmodium cynomolgi [4] = test: Antimalarial activity against Plasmodium cynomolgi in rhesus monkey 0.316 mg/kg; 0 of 1; assay type: functional
Plasmodium cynomolgi [5] = test: Antimalarial activity against Plasmodium cynomolgi in rhesus monkey 1.0 mg/kg; 1 of 2; assay type: functional
Rhesus monkey [6] = test: Number of days between the end of the treatment and relapse was reported at a dose 0.1 mg/kg; assay type: functional, Cercopithecidae
Plasmodium cynomolgi [7] = test: Antimalarial activity against Plasmodium cynomolgi in rhesus monkey 0.316 mg/kg; 1 of 2; assay type: functional
Plasmodium cynomolgi [8] = test: Antimalarial activity against Plasmodium cynomolgi in rhesus monkey 1.0 mg; 2 of 2; assay type: functional
Plasmodium cynomolgi [9] = test: Antimalarial activity against Plasmodium cynomolgi in rhesus monkey at a dose 0.1 mg/kg; 0 of 2; assay type: functional
Plasmodium cynomolgi [10] = test: Antimalarial activity against Plasmodium cynomolgi infected rhesus monkey at 0.25 mg/kg; 2 of 2; assay type: functional
Plasmodium cynomolgi [11] = test: Antimalarial activity against Plasmodium cynomolgi infected Rhesus monkeys (Macaca mulatta) at 0.0625 mg/kg dose; cured 0 of 2; assay type: functional
Plasmodium cynomolgi [12] = test: Antimalarial activity against Plasmodium cynomolgi in rhesus monkey at a dose 0.125 mg/kg; 2 of 2; assay type: functional
Plasmodium cynomolgi [13] = test: Antimalarial activity against Plasmodium cynomolgi infected rhesus monkey at 0.5 mg/kg dose; 1 of 1; assay type: functional
Plasmodium cynomolgi [14] = test: Antimalarial activity against Plasmodium cynomolgi in rhesus monkey 1.0 mg/kg; 0 of 1; assay type: functional
Plasmodium cynomolgi [15] = test: Antimalarial activity against Plasmodium cynomolgi in rhesus monkey 1.0 mg/kg; 0 of 2; assay type: functional
Plasmodium cynomolgi [16] = test: Antimalarial activity against Plasmodium cynomolgi infected rhesus monkey at 0.25 mg/kg dose; 0 of 6; assay type: functional
Plasmodium cynomolgi [17] = test: Antimalarial activity against Plasmodium cynomolgi infected rhesus monkey at 0.5 mg/kg dose; cured 4 of 6; assay type: functional
Plasmodium cynomolgi [18] = test: Antimalarial activity against Plasmodium cynomolgi infected rhesus monkey at 0.75 mg/kg dose; 4 of 6; assay type: functional

C=Cc1ccnc2c(NC(C)CCCN)cc(OC)c(OC)c12 (centres undefined)
Relapses (Rhesus monkey [1]): 23 | Cures (Plasmodium cynomolgi [2]): 0 | Relapses (Rhesus monkey [3]): 27 | Cures (Plasmodium cynomolgi [4]): 0 | Cures (Plasmodium cynomolgi [5]): 1 | Relapses (Rhesus monkey [6]): 9

COCc1ccnc2c(NC(C)CCCN)cc(OC)c(Oc3cccc(C(F)(F)F)c3)c12 (centres undefined)
Relapses (Rhesus monkey [1]): 28 | Cures (Plasmodium cynomolgi [7]): 1 | Cures (Plasmodium cynomolgi [8]): 2 | Relapses (Rhesus monkey [6]): 8 | Cures (Plasmodium cynomolgi [9]): 0

COc1cc(NC(C)CCCN)c2nccc(C)c2c1OC (centres undefined)
Cures (Plasmodium cynomolgi [10]): 2 | Cures (Plasmodium cynomolgi [11]): 0 | Cures (Plasmodium cynomolgi [12]): 2 | Cures (Plasmodium cynomolgi [13]): 1

COc1cc(NC(C)CCCN)c2nccc(COc3cccc(C(F)(F)F)c3)c2c1OC (centres undefined)
Relapses (Rhesus monkey [3]): 12 | Cures (Plasmodium cynomolgi [14]): 0

COc1cc(NC(C)CCCN)c2nccc(COc3cccc(C(F)(F)F)c3)c2c1Oc1cccc(C(F)(F)F)c1 (centres undefined)
Cures (Plasmodium cynomolgi [2]): 0 | Relapses (Rhesus monkey [3]): 11 | Cures (Plasmodium cynomolgi [15]): 0 | Relapses (Rhesus monkey [6]): 11

COc1cc(NC(C)CCCN)c2ncccc2c1 (centres undefined) [PRIMAQUINE]
Cures (Plasmodium cynomolgi [16]): 0 | Cures (Plasmodium cynomolgi [17]): 4 | Cures (Plasmodium cynomolgi [18]): 4
